# Values joined by “and” are separate entries in the source; they are usually repeats but may differ in a detail not shown here. Equal entries are not always repeated.
# Key:
# FFX Sprague Dawley rats = assay: Hippocampal long-term potentiation in vivo; design: species or system rat; details: 0.3 mg/kg
# Method: AZD0328 reversed a deficit in hippocampal long-term potentiation (LTP) in FFX Sprague Dawley rats (Table 2). […] 0.3 mg/kg of AZD0328 was ineffective in this test.
# α7 receptor = α7 receptor (Rattus norvegicus, UniProt Q05941); assay: Pre-frontal cortex slice GABA sIPSC frequency; format: cell-based; details: rat PFC slice
# Text: In membranes prepared either from cultured, human recombinant α7 receptor-expressing, human embryonic kidney cells α7-HEK) or from rat brain hippocampus, AZD0328 competed with binding of an iodinated form of the high-affinity, selective α7 receptor antagonist snake toxin, [^125I]-α-bungarotoxin (BTX) (Table 1). In Xenopus oocytes injected with human, recombinant α7 receptor mRNA, AZD0328 activates whole cell currents (Table 2). […] In acutely dissociated rat hippocampal interneurons, AZD0328 elicits rapidly activated, desensitizing whole-cell current (Table 1), consistent with the known properties of rat neuronal α7 receptors. […] AZD0328 modulates synaptic function, consistent with the well-known role of α7 receptors as heteroreceptor modulators of glutamatergic and GABAergic synaptic function.
# [1] = Intestinal transit (charcoal meal, glass bead); details: in vivo; rat, oral; read-out: NOAEL on intestinal motility
# Method: Effects of AZD0328 on small intestinal and colorectal motility were investigated in rats using the charcoal meal test and the glass bead test, respectively (Table 3). In the first part, evaluating intestinal transit, a test meal containing charcoal as a non-absorbable marker was administered to rats. In the second part, effects of oral administration of AZD0328 on colorectal transit time was evaluated.
# [2] = biological target: human recombinant α7 receptor (Homo sapiens, UniProt P36544); assay: [3H]-AZ11637326 binding, α7-HEK; design: expressed in transfected cells
# guinea pigs = assay: Cardiac repolarisation in the anesthetised guinea pig; format: in vivo
# Method: Effects of AZD0328 on ventricular repolarisation and intracardiac conduction were investigated in 6 anesthetised and ventilated guinea pigs (Table 3). For the electrophysiological characterisation, monophasic action potentia MAP duration at 90% repolarisation (MAPD90), ventricular conduction velocity (MAP rise time), and atrioventricular (AV) conduction time were recorded during cardiac pacing. AZD0328 had dose-dependent effects on the electrophysiological activities in the guinea pig heart. At the highest dose, resulting in a total plasma concentration of 8.5 μM, MAPD90 and AV conduction time were prolonged by 20% and 13%, respectively. It is concluded that AZD0328 delayed ventricular repolarisation in the anesthetised guinea pig by 10% at a total plasma concentration of 2.4 μM.
# rat brain α7 receptors = rat brain α7 receptors (Rattus norvegicus, UniProt Q05941); assay: BTX binding, rat hippocampal membranes
# Method: AZD0328 is a reversible, high affinity ligand of human recombinant and rat brain α7 receptors. […]. Systemic administration of AZD0328 occupied rat brain α7 receptors and increased the number of α7 receptor binding sites. Very low doses of AZD0328 (0.00048-0.0016 mg/kg) improved spatial working memory performance in rhesus monkeys. The pharmacological profile of AZD0328 illustrates its potential utility to improve cognitive function by activating the α7 receptor.
# . In Xenopus oocytes injected with human, recombinant α7 receptor mRNA, AZD0328 activates whole cell currents (Table 2). […] In acutely dissociated rat hippocampal interneurons, AZD0328 elicits rapidly activated, desensitizing whole-cell current (Table 1), consistent with the known properties of rat neuronal α7 receptors. […] AZD0328 modulates synaptic function, consistent with the well-known role of α7 receptors as heteroreceptor modulators of glutamatergic and GABAergic synaptic function.
# [3] = Respiratory effects, whole body plethysmography; format: in vivo; details: plasma; rat, oral; read-out: NOAEL on ventilatory function, total Cmax
# Method: (§1) Effects of single oral doses of AZD0328 on mean, systolic and diastolic arterial blood pressures, heart rate, body temperature, locomotor activity and respiratory parameters were evaluated in rats by combining whole body plethysmography with telemetry (Table 3). […] The degree of hypertension, however, was similar at the 3 highest doses, which partly can be explained by the high individual variation in plasma exposure at each dose level. The effect on heart rate was, on the other hand, dose-related.
# Effects of AZD0328 on respiratory function were evaluated in the combined cardiovascular/respiratory study in rats (Table 3). Respiratory rate, tidal volume, inspiratory and expiratory times, and peak inspiratory and expiratory flows were measured […].
# [4] = biological target: T1, hERG-encoded potassium channel (Homo sapiens, UniProt Q12809); assay: hERG patch clamp; format: cell-based; details: HEK cells, read-out: IC50, block of hERG tail current (estimated)
# T1 construct: expressed in transfected cells; host or cells: HEK cells
# Method: A study was performed to evaluate the effects of AZD0328 on the α-subunit of the voltage-dependent potassium channel encoded by the human ether-a-go-go-related gene (hERG), using the patch clamp technique (Table 3).
# 5-HT3A = biological target: T2, 5-HT3A (Homo sapiens, UniProt P46098); assay: Functional assays at recombinant human receptors; format: biochemical; details: functional potency, recombinant human receptors in vitro
# T2 construct: expressed in transfected cells
# [5] = Cardiovascular/ECG telemetry in dogs; format: in vivo; details: in vivo, dog, low dose group, read-out: total Cmax
# Method: (§2) The cardiovascular effects of orally administered AZD0328 were assessed dogs implanted with telemetry transmitters (Table 3). The main purpose of the study was to evaluate effects on the QT interval of the ECG during a 7-days dosing period followed by 5 days of recovery, thus enabling assessment of any accumulation of effects and the recovery back to baseline. Systolic, diastolic and mean arterial blood pressure, heart rate, lead II ECG and core body temperature were recorded continuously. The PR, QRS and QT intervals of the ECG were measured, and the QT interval was corrected for changes in heart rate using the method of Van de Water (QTcV).
# dogs = assay: Cardiovascular/ECG telemetry in dogs; format: in vivo; details: dog, oral
# Method: as §2
# rats = assay: Cardiovascular effects in telemetered rats; format: in vivo, rat
# Method: as §1
# [6] = Cardiovascular effects in telemetered rats; format: in vivo, rat; details: plasma, rat
# Method: as §1
# [7] = highest dose, total plasma concentration 8.5 μM
# Sequence of α7 receptor (Q05941 23-502): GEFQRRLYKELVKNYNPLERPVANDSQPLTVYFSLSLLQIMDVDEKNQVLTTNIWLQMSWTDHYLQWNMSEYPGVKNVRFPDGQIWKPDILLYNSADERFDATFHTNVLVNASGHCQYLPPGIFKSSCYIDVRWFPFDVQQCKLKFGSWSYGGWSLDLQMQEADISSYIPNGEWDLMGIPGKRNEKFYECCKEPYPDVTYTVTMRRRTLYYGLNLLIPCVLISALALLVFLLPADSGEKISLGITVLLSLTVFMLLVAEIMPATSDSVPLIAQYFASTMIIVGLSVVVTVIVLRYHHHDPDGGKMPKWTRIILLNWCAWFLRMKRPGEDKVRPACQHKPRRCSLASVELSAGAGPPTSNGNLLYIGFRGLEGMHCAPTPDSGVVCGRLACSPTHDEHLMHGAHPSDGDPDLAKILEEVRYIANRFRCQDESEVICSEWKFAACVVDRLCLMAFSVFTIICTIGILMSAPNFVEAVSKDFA
# T1 sequence (Q12809 whole entry): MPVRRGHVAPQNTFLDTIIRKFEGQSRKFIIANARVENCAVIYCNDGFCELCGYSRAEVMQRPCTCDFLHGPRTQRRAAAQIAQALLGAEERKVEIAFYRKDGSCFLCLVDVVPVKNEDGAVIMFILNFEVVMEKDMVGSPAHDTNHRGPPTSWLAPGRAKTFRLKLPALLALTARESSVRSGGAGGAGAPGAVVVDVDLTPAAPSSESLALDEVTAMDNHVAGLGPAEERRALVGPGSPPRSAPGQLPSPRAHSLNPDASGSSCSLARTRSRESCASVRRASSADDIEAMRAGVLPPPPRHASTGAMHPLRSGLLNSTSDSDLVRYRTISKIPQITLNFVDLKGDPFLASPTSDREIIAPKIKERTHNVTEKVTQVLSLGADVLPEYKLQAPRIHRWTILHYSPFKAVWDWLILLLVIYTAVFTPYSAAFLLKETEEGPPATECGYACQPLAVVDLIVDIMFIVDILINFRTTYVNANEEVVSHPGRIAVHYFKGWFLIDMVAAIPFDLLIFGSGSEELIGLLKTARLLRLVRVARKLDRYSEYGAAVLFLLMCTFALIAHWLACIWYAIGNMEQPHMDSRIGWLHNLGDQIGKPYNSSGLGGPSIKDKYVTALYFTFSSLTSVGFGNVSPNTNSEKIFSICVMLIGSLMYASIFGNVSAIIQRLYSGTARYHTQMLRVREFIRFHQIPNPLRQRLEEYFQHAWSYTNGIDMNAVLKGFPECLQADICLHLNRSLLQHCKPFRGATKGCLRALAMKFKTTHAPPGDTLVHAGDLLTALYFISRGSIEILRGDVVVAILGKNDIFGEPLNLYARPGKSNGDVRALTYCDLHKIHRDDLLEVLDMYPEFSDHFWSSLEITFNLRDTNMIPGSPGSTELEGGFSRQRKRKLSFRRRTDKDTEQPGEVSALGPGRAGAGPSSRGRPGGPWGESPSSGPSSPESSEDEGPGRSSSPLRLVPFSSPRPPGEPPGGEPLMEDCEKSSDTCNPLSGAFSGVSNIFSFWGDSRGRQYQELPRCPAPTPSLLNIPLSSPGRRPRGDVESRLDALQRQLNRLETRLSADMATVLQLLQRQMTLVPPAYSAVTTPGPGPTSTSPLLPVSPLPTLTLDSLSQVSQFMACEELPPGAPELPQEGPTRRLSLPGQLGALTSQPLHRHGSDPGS
# T2 sequence (P46098 24-478): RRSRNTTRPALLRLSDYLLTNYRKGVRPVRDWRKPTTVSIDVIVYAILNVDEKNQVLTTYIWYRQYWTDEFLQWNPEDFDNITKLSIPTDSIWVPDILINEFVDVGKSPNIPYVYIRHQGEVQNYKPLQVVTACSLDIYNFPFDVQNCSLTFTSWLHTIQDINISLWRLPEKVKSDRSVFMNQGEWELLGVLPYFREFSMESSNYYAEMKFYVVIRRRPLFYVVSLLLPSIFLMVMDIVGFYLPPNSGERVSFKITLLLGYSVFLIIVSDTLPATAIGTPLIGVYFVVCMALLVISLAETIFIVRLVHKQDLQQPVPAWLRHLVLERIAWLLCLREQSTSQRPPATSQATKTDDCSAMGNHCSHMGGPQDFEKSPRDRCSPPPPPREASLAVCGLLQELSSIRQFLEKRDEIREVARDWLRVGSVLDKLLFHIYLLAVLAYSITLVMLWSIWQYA
# Sequence of rat brain α7 receptors (Q05941 23-502): as the sequence (Q05941 23-502) above
# Sequence of human recombinant α7 receptor (P36544 23-502): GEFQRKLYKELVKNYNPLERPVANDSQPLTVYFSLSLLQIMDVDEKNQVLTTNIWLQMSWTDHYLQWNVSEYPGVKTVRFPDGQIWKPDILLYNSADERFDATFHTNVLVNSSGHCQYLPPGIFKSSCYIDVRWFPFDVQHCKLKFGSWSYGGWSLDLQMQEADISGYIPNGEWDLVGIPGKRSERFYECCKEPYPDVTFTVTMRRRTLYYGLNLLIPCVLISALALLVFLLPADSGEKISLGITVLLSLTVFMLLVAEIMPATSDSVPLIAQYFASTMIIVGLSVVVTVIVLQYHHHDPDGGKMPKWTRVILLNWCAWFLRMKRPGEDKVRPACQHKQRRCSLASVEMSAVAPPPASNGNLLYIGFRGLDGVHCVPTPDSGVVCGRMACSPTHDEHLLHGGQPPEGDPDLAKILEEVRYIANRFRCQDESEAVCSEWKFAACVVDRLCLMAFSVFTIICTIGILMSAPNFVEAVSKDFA
smiles,measurement,setting,value
"c1cnc2c(c1)C[C@@]1(CN3CCC1CC3)O2 [AZD0328, (R)-Spiro[1-azabicyclo[2.2.2]octane-3,2′(3′H)-furo[2,3-b]pyridine]]",effect on hippocampal LTP,FFX Sprague Dawley rats,ineffective
same,EC50,α7 receptor,700 nM
same,Emax,"α7 receptor; read-out: Maximum response, GABA sIPSC frequency",330%
same,NOAEL,[1],5.6 mg/kg
same,Ki,[2],6.4 nM
same,total plasma concentration,"guinea pigs; highest dose, iv cumulative bolus",8.5 µM
same,prolongation of AV conduction time,guinea pigs; [7],13%
same,prolongation of MAPD90,guinea pigs; [7],20%
same,"NOAEL, guinea pig MAP assay",guinea pigs; in vivo,1 µM
same,Ki,rat brain α7 receptors,4.7 nM
same,Cmax,[3],31200 nM
same,IC50,[4],32000 nM
same,functional selectivity 5-HT3A>α7,5-HT3A,14 fold
same,Cmax,"[5]; oral, day 7 (lowest)",800 nM
same,Cmax,"[5]; po, day 4",1500 nM
same,single dose followed by frequent vomiting,dogs,17.3 mg/kg and 34.6 mg/kg
same,increase in HR,"rats; rat, highest dose (total Cmax 31.2 μM)",19%
same,dose without CV effect,"rats; rat, oral gavage",1.1 mg/kg
same,duration of BP and HR increase postdose,rats; telemetered rats,increased for up to 6 h postdose.
same,Cmax,"[6]; po, highest dose, read-out: total Cmax",31200 nM
same,Cmax,"[6]; oral, 1.1 mg/kg, read-out: NOAEL (effect<10%) on cardiovascular function, total Cmax",500 nM
